# Experimental data from ChEMBL document CHEMBL3763064, “Discovery of silyl proline containing HCV NS5A inhibitors with pan-genotype activity: SAR development” (Bioorg Med Chem Lett, 2016).
# Experiments:
# Hepatitis C virus [1] = experiment: Antiviral activity against HCV genotype 1b by replicon assay; type: functional, organism-based, Hepacivirus hominis
# Hepatitis C virus [2] = experiment: Antiviral activity against HCV genotype 2a by replicon assay; type: functional, organism-based, Hepacivirus hominis
# Hepatitis C virus [3] = experiment: Antiviral activity against HCV genotype 3a by replicon assay; type: functional, organism-based, Hepacivirus hominis
# Hepatitis C virus [4] = experiment: Antiviral activity against HCV genotype 1a expressing NS5A Y93H mutant by replicon assay; type: functional, organism-based, Hepacivirus hominis; settings: subtype 1a
# Hepatitis C virus [5] = experiment: Antiviral activity against HCV genotype 1a by replicon assay; type: functional, organism-based, Hepacivirus hominis; settings: subtype 1a
# [6] = Half life in iv dosed Sprague-Dawley rat; type: ADME, organism-based; settings: in vivo
# Rattus norvegicus = experiment: AUC in Sprague-Dawley rat at 5 mg/kg, po; type: ADME, organism-based; settings: in vivo
Structure (SMILES),EC50 (Hepatitis C virus [1]),EC50 (Hepatitis C virus [2]),EC50 (Hepatitis C virus [3]),EC50 (Hepatitis C virus [4]),EC50 (Hepatitis C virus [5]),half-life [6],AUC (Rattus norvegicus)
COC(=O)N[C@H](C(=O)N1CCC[C@H]1c1ncc(-c2ccc(-c3ccc(-c4cnc([C@@H]5CCCN5C(=O)[C@@H](NC(=O)OC)C(C)C)[nH]4)cc3)cc2)[nH]1)C(C)C,0.01 nM,0.04 nM,0.7 nM,198 nM,,,
COC(=O)N[C@H](C(=O)N1C[Si](C)(C)C[C@H]1c1ncc(-c2ccc(-c3ccc4c(ccc5nc([C@@H]6CCCN6C(=O)[C@@H](NC(=O)OC)C(C)C)[nH]c54)c3)nc2)[nH]1)C(C)C,0.014 nM,,,185 nM,0.04 nM,,
COC(=O)N[C@H](C(=O)N1CCC[C@H]1c1ncc(-c2ccc(-c3ccc4c(ccc5nc([C@@H]6C[Si](C)(C)CN6C(=O)[C@@H](NC(=O)OC)C6CCCC6)[nH]c54)c3)cc2)[nH]1)C(C)C,,,,471 nM,0.09 nM,,
CCC(C)[C@H](NC(=O)OC)C(=O)N1CCC[C@H]1c1ncc(-c2ccc(-c3ccc4c(ccc5nc([C@@H]6C[Si](C)(C)CN6C(=O)[C@@H](NC(=O)OC)C(C)C)[nH]c54)c3)cc2)[nH]1 (stereo not given in full),,,,640 nM,0.15 nM,,
COC(=O)N[C@H](C(=O)N1C[Si](C)(C)C[C@H]1c1ncc(-c2ccc(-c3cc4c(ccc5nc([C@@H]6CCCN6C(=O)[C@@H](NC(=O)OC)C(C)C)[nH]c54)s3)cc2)[nH]1)C(C)C,0.006 nM,,,2330 nM,> 1 nM,,
COC(=O)N[C@H](C(=O)N1C[Si](C)(C)C[C@H]1c1ncc(-c2ccc(-c3ccc4c(ccc5nc([C@@H]6CCCN6C(=O)[C@@H](NC(=O)OC)C(C)C)[nH]c54)c3)cc2OC)[nH]1)C(C)C,,,,497 nM,0.27 nM,,
COC(=O)N[C@H](C(=O)N1CCC[C@H]1c1ncc(-c2ccc(-c3ccc4c(ccc5nc([C@@H]6C[Si](C)(C)CN6C(=O)[C@@H](NC(=O)OC)C(C)C)[nH]c54)c3)cc2)[nH]1)C(C)C,0.004 nM,0.004 nM,0.26 nM,35 nM,0.003 nM,6.6 h,3.2 uM.hr/ml
CCC(C)[C@H](NC(=O)OC)C(=O)N1C[Si](C)(C)C[C@H]1c1nc2ccc3cc(-c4ccc(-c5cnc([C@@H]6CCCN6C(=O)[C@@H](NC(=O)OC)C(C)C)[nH]5)cc4)ccc3c2[nH]1 (stereo not given in full),,,,279 nM,0.08 nM,,
COC(=O)N[C@H](C(=O)N1C[Si](C)(C)C[C@H]1c1nc2ccc3cc(-c4ccc(-c5cnc([C@@H]6CCCN6C(=O)[C@@H](NC(=O)OC)C(C)OC)[nH]5)cc4)ccc3c2[nH]1)C(C)C (stereo not given in full),,,,225 nM,0.07 nM,,
COC(=O)N[C@H](C(=O)N1C[Si](C)(C)C[C@H]1c1ncc(-c2ccc(-c3ccc4c(ccc5nc([C@@H]6CC(F)(F)CN6C(=O)[C@@H](NC(=O)OC)C(C)C)[nH]c54)c3)cc2)[nH]1)C(C)C,,,,65 nM,,6.7 h,7.6 uM.hr/ml
COC(=O)N[C@H](C(=O)N1CCC[C@H]1c1ncc(-c2ccc(-c3cc4cc(-c5cnc([C@@H]6C[Si](C)(C)CN6C(=O)[C@@H](NC(=O)OC)C(C)C)[nH]5)ccc4o3)cc2)[nH]1)C(C)C,0.003 nM,2.4 nM,15 nM,153 nM,0.04 nM,,
COC(=O)N[C@H](C(=O)N1C[Si](C)(C)C[C@H]1c1nc2ccc3cc(-c4ccc(-c5cnc([C@@H]6[C@@H]7C[C@@H](C(F)C7F)N6C(=O)[C@@H](NC(=O)OC)C(C)C)[nH]5)cc4)ccc3c2[nH]1)C(C)C (stereo not given in full),0.002 nM,,,204 nM,0.04 nM,,
COC(=O)N[C@H](C(=O)N1C[C@H](O)C[C@H]1c1ncc(-c2ccc(-c3ccc4c(ccc5nc([C@@H]6C[Si](C)(C)CN6C(=O)[C@@H](NC(=O)OC)C(C)C)[nH]c54)c3)cc2)[nH]1)C(C)C,0.005 nM,,,44 nM,0.06 nM,,
COC(=O)N[C@H](C(=O)N1CC(C)(C)C[C@H]1c1ncc(-c2ccc(-c3ccc4c(ccc5nc([C@@H]6C[Si](C)(C)CN6C(=O)[C@@H](NC(=O)OC)C(C)C)[nH]c54)c3)cc2)[nH]1)C(C)C,0.003 nM,,,90 nM,0.015 nM,,
COC(=O)N[C@H](C(=O)N1C[Si](C)(C)C[C@H]1c1nc2ccc3cc(-c4ccc(-c5cnc([C@@H]6[C@H]7CC[C@H](C7)N6C(=O)[C@@H](NC(=O)OC)C(C)C)[nH]5)cc4)ccc3c2[nH]1)C(C)C,0.01 nM,,,131 nM,0.09 nM,,
COC(=O)N[C@H](C(=O)N1C[Si](C)(C)C[C@H]1c1nc2ccc3cc(-c4ccc(-c5cnc([C@@H]6CCCN6C(=O)[C@@H](NC(=O)OC)C6CCCC6)[nH]5)cc4)ccc3c2[nH]1)C(C)C,,,,590 nM,0.2 nM,,
COC(=O)N[C@H](C(=O)N1C[C@H](F)C[C@H]1c1ncc(-c2ccc(-c3ccc4c(ccc5nc([C@@H]6C[Si](C)(C)CN6C(=O)[C@@H](NC(=O)OC)C(C)C)[nH]c54)c3)cc2)[nH]1)C(C)C,0.006 nM,,,27 nM,0.07 nM,,
COC(=O)N[C@H](C(=O)N1CCC[C@H]1c1ncc(-c2ccc(-c3ccc(-c4cnc([C@@H]5C[Si](C)(C)CN5C(=O)[C@@H](NC(=O)OC)C(C)C)[nH]4)cc3)cc2)[nH]1)C(C)C,0.003 nM,0.04 nM,0.5 nM,92 nM,0.04 nM,,

Structure (SMILES),EC50 (Hepatitis C virus [1]),EC50 (Hepatitis C virus [2]),EC50 (Hepatitis C virus [3]),EC50 (Hepatitis C virus [4]),EC50 (Hepatitis C virus [5]),half-life [6],AUC (Rattus norvegicus)
COC(=O)N[C@H](C(=O)N1C[Si](C)(C)C[C@H]1c1nc2ccc3cc(-c4ccc(-c5cnc([C@@H]6CCCN6C(=O)[C@@H](NC(=O)OC)C6CC6)[nH]5)cc4)ccc3c2[nH]1)C(C)C,,,,260 nM,0.08 nM,,
COC(=O)N[C@H](C(=O)N1C[Si](C)(C)C[C@H]1c1ncc(-c2ccc(-c3ccc4c(ccc5nc([C@@H]6CCCN6C(=O)[C@@H](NC(=O)OC)C(C)C)[nH]c54)c3)cc2)[nH]1)C(C)C,0.003 nM,0.02 nM,0.05 nM,95 nM,0.014 nM,,
COC(=O)N[C@H](C(=O)N1C[Si](C)(C)C[C@H]1c1nc2ccc3cc(-c4ccc(-c5cnc([C@@H]6CCCN6C(=O)[C@@H](NC(=O)OC)C(C)O)[nH]5)cc4)ccc3c2[nH]1)C(C)C (stereo not given in full),,,,579 nM,0.14 nM,,
COC(=O)N[C@H](C(=O)N1CCC[C@H]1c1ncc(-c2ccc(-c3ccc4c(ccc5nc([C@@H]6C[Si](C)(C)CN6C(=O)[C@@H](NC(=O)OC)C(C)OC)[nH]c54)c3)cc2)[nH]1)C(C)C (stereo not given in full),,,,275 nM,0.03 nM,,
COC(=O)N[C@H](C(=O)N1C[Si]2(CCCC2)C[C@H]1c1ncc(-c2ccc(-c3ccc4c(ccc5nc([C@@H]6CCCN6C(=O)[C@@H](NC(=O)OC)C(C)C)[nH]c54)c3)cc2)[nH]1)C(C)C,,0.01 nM,0.2 nM,350 nM,0.06 nM,,
COC(=O)N[C@H](C(=O)N1C[Si](C)(C)C[C@H]1c1ncc(-c2ccc(-c3ccc4nc([C@@H]5CCCN5C(=O)[C@@H](NC(=O)OC)C(C)C)[nH]c4c3)cc2)[nH]1)C(C)C,0.004 nM,,,9920 nM,> 1 nM,,
COC(=O)N[C@H](C(=O)N1C[Si](C)(C)C[C@H]1c1ncc(-c2ccc(-c3ccc4c(ccc5nc([C@@H]6C[C@@H](F)CN6C(=O)[C@@H](NC(=O)OC)C(C)C)[nH]c54)c3)cc2)[nH]1)C(C)C,0.003 nM,,,10 nM,0.02 nM,,
COC(=O)N[C@H](C(=O)N1C[Si](C)(C)C[C@H]1c1ncc(-c2ccc(-c3ccc4c(ccc5nc([C@@H]6CCCN6C(=O)[C@@H](NC(=O)OC)C(C)C)[nH]c54)c3)cc2F)[nH]1)C(C)C,,,,329 nM,0.05 nM,,
COC(=O)N[C@H](C(=O)N1C[Si](C)(C)C[C@H]1c1ncc(-c2ccc(-c3ccc4c(ccc5nc([C@@H]6CCCN6C(=O)[C@@H](NC(=O)OC)C(C)C)[nH]c54)c3)cc2C2CC2)[nH]1)C(C)C,,,,1600 nM,0.43 nM,,
COC(=O)N[C@H](C(=O)N1C[Si](C)(C)C[C@H]1c1ncc(-c2ccc(-c3ccc(-c4cnc([C@@H]5C[Si](C)(C)CN5C(=O)[C@@H](NC(=O)OC)C(C)C)[nH]4)cc3)cc2)[nH]1)C(C)C,0.01 nM,0.25 nM,4.1 nM,> 1000 nM,0.2 nM,,
COC(=O)N[C@H](C(=O)N1C[Si](C)(C)C[C@H]1c1ncc(-c2ccc(-c3ccc4c(ccc5nc([C@@H]6CCCN6C(=O)[C@@H](NC(=O)OC)C(C)C)[nH]c54)c3)cc2-c2cccs2)[nH]1)C(C)C,,,,1150 nM,0.5 nM,,
COC(=O)N[C@H](C(=O)N1CCC(F)(F)C[C@H]1c1ncc(-c2ccc(-c3ccc4c(ccc5nc([C@@H]6C[Si](C)(C)CN6C(=O)[C@@H](NC(=O)OC)C(C)C)[nH]c54)c3)cc2)[nH]1)C(C)C,,,,728 nM,0.1 nM,,
COC(=O)N[C@H](C(=O)N1C[Si](C)(C)C[C@H]1c1nc2ccc3cc(-c4ccc(-c5cnc([C@@H]6C[C@H]7C[C@H]7N6C(=O)[C@@H](NC(=O)OC)C(C)C)[nH]5)cc4)ccc3c2[nH]1)C(C)C,,,,30 nM,,,
COC(=O)N[C@H](C(=O)N1CCC[C@H]1c1ncc(-c2ccc(-c3ccc4c(ccc5nc([C@@H]6C[Si](C)(C)CN6C(=O)[C@@H](NC(=O)OC)C6CC6)[nH]c54)c3)cc2)[nH]1)C(C)C,,,,87 nM,0.05 nM,,
COC(=O)N[C@H](C(=O)N1CCC[C@H]1c1ncc(-c2ccc(-c3ccc4c(ccc5nc([C@@H]6C[Si](C)(C)CN6C(=O)[C@@H](NC(=O)OC)C(C)O)[nH]c54)c3)cc2)[nH]1)C(C)C (stereo not given in full),,,,> 1000 nM,0.6 nM,,
COC(=O)N[C@H](C(=O)N1C[Si](C)(C)C[C@H]1c1ncc(-c2ccc(-c3ccc4c(ccc5nc([C@@H]6CCCN6C(=O)[C@@H](NC(=O)OC)C(C)C)[nH]c54)c3)s2)[nH]1)C(C)C,0.004 nM,,,921 nM,0.14 nM,,
COC(=O)N[C@H](C(=O)N1CCS(=O)(=O)C[C@H]1c1ncc(-c2ccc(-c3ccc4c(ccc5nc([C@@H]6C[Si](C)(C)CN6C(=O)[C@@H](NC(=O)OC)C(C)C)[nH]c54)c3)cc2)[nH]1)C(C)C,0.01 nM,,,380 nM,0.2 nM,,
COC(=O)N[C@H](C(=O)N1CC(F)(F)C[C@H]1c1ncc(-c2ccc(-c3ccc4c(ccc5nc([C@@H]6C[Si](C)(C)CN6C(=O)[C@@H](NC(=O)OC)C(C)C)[nH]c54)c3)cc2)[nH]1)C(C)C,,,,46 nM,0.015 nM,,5 uM.hr/ml
